Changes are numbered by the printed parent chain.
Tests used:
MxA^MO2 [1] = biological target: T1, MxA^MO2 (Homo sapiens, UniProt P20591, A149C/C322K/C336Q/C42S/C52S/M527D/S634C); assay: isothermal titration calorimetry; type: binding; settings: read-out: equilibrium dissociation constant
T1 construct: gene MX1; monomeric full-length-type MxA (M527D) with solvent-exposed cysteines replaced; N-terminal His6-PreScission tag cut, E. coli Rosetta (DE3); SEC peak ~70 kDa
T1 sequence (P20591 1-662 C42S/C52S/A149C/C322K/C336Q/M527D/S634C): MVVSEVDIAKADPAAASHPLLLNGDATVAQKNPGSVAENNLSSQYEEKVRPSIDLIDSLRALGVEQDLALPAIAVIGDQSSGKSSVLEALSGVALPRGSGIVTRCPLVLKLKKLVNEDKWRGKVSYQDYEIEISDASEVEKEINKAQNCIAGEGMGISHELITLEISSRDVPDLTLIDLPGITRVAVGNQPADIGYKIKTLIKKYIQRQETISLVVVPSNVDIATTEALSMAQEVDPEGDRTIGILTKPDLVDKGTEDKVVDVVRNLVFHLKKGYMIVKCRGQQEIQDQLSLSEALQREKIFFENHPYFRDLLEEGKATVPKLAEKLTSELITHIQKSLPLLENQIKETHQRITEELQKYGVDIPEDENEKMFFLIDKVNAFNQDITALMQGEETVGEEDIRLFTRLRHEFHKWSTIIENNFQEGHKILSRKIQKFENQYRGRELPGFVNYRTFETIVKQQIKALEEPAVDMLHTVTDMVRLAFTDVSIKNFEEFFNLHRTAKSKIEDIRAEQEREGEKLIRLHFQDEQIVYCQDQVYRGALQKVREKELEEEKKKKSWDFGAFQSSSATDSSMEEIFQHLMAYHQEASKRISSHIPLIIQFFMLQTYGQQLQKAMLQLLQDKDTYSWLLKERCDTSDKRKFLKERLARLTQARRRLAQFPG
Method: (§1) isothermal titration calorimetry on MxA^MO2 | The equilibrium dissociation constants for MxA^MO2-AS and MxA^MO2-RR to GDP and GMPPCP were determined

MxA^MO2 [2] = biological target: T2, MxA^MO2 (Homo sapiens, UniProt P20591, C322K/C336Q/C42S/C52S/M527D/R352C/R500C); assay: isothermal titration calorimetry; type: binding; settings: read-out: equilibrium dissociation constant
T2 construct: gene MX1; monomeric full-length-type MxA (M527D) with solvent-exposed cysteines replaced; N-terminal His6-PreScission tag cut, E. coli Rosetta (DE3); SEC peak ~70 kDa
T2 sequence (P20591 1-662 C42S/C52S/C322K/C336Q/R352C/R500C/M527D): T1 sequence (P20591 1-662 C42S/C52S/A149C/C322K/C336Q/M527D/S634C) with C149A, R352C, R500C, C634S
Method: as §1

SMILES | Kd (MxA^MO2 [1]) | Kd (MxA^MO2 [2])
Nc1nc(O)c2ncn([C@@H]3O[C@H](COP(=O)(O)OP(=O)(O)C[P+]([O-])(O)O)[C@@H](O)[C@H]3O)c2n1 [GMPPCP, guanosine-5′-[(β,γ)-methyleno]triphosphate] | 30 ± 0.003 µM | 14.7 ± 0.13 µM
Nc1nc2c(ncn2[C@@H]2O[C@H](COP(=O)(O)OP(=O)(O)O)[C@@H](O)[C@H]2O)c(=O)[nH]1 [GDP] | 42.6 ± 0.14 µM | 26.3 ± 0.03 µM

Reference: PMC5458555, “Conformational dynamics of dynamin-like MxA revealed by single-molecule FRET” (Nature Communications, 2017)
